Paper PMC6362307, “DPP8/DPP9 inhibition elicits canonical Nlrp1b inflammasome hallmarks in murine macrophages” (Life Science Alliance, 2019)
Like-named read-outs stand apart in the source and are kept apart here.

Assays:
B6 BMDMs = experiment: Cell death kinetics, Sytox Green on Incucyte; assay type: cell-based
B6^Nlrp1b+ BMDMs [1] = experiment: Cell death kinetics, Sytox Green on Incucyte; assay type: cell-based, mouse; details: for time to reach 30% half-maximal level of pyroptosis: VBP: all tested concentrations (10, 25, 40 μM), 1G244: 10 μM
B6^Nlrp1b+ BMDMs [2] = experiment: Caspase-1 cleavage by immunoblot; assay type: cell-based, mouse; details: for caspase-1 maturation to p20 (in words): LPS-primed 3 h, 10 or 40 μM, 4, 8 and 24 h; for caspase-1 maturation (in words): LPS-primed, 4 and 8 h
[3] = system: LPS-primed B6^Nlrp1b+ BMDMs; experiment: IL-1β and IL-18 secretion, Luminex multiplex assay; assay type: cell-based, mouse
B6^Nlrp1b+ BMDMs [4] = experiment: ASC speck formation, confocal imaging; assay type: cell-based, mouse; details: 10 μM; 4 or 8 h
Method: Cells were stained with anti-ASC (1:200) antibody, followed by secondary anti-rabbit DyLight 594 (1:1,000). Then, slides were mounted on ProLong Gold Antifade reagent with DAPI for analysis. For quantification of ASC specks, analyses were performed on a spinning-disk system (Zeiss), using an observer Z.1 microscope equipped with a Yokogawa disk CSU-X1. Fluorescent images were acquired with the use of a Plan-Apochromat 40×/1.4 oil DIC III objective and a Rolera Em-C2 Camera. Tile scanning was performed combining 4 × 5 images for the final mosaic (total area 7.42 mm × 5.91 mm). The maximum intensity projections of the final mosaic were analysed on Volocity 6.3.1 (PerkinElmer) software for the number of cells containing ASC specks. Seven mosaics were quantified per experimental condition from each biological repeat and the data from all repeats were combined. One-way ANOVA with Tukey’s multiple comparisons analysis was performed in GraphPad Prism 6.0 software.

B6^Nlrp1b+ASC^−/− BMDMs [5] = experiment: Cell death kinetics, Sytox Green on Incucyte; assay type: cell-based, mouse; details: 10 μM
B6^Nlrp1b+ASC^−/− BMDMs [6] = experiment: Caspase-1 cleavage by immunoblot; assay type: cell-based, mouse; details: 10 μM; 8 h
[7] = system: B6^Nlrp1b+C1^−/−C11^−/−ASC^−/− macrophages; experiment: Cell death morphology, confocal bright-field imaging; assay type: cell-based, mouse; details: 10 μM; 4 h
[8] = system: B6^Nlrp1b+GSDMD^−/− macrophages; experiment: Apoptosis induction, confocal bright-field imaging; assay type: cell-based, mouse; details: 10 μM; 4 h
human DPP9 [9] = target: T1, human DPP9 (Homo sapiens, UniProt Q86TI2); details: for Inhibitor in lysate / Inhibitor in medium: mouse, 15 min, 10 µM
human DPP9 [10] = target: T1, human DPP9; experiment: biochemical
Human DPP2 [11] = target: T2, Human DPP2 (Homo sapiens, UniProt Q9UHL4)
Method: (§1) Lys-Ala-paranitroanilide (Lys-Ala-pNA) was used as substrate at a final concentration of 1 mM.

Human DPP2 [12] = target: T2, Human DPP2; experiment: biochemical
Method: as §1

Human recombinant FAP = target: T3, Human recombinant FAP (Homo sapiens, UniProt Q12884)
T3 sequence (Q12884 26-760 limits assumed): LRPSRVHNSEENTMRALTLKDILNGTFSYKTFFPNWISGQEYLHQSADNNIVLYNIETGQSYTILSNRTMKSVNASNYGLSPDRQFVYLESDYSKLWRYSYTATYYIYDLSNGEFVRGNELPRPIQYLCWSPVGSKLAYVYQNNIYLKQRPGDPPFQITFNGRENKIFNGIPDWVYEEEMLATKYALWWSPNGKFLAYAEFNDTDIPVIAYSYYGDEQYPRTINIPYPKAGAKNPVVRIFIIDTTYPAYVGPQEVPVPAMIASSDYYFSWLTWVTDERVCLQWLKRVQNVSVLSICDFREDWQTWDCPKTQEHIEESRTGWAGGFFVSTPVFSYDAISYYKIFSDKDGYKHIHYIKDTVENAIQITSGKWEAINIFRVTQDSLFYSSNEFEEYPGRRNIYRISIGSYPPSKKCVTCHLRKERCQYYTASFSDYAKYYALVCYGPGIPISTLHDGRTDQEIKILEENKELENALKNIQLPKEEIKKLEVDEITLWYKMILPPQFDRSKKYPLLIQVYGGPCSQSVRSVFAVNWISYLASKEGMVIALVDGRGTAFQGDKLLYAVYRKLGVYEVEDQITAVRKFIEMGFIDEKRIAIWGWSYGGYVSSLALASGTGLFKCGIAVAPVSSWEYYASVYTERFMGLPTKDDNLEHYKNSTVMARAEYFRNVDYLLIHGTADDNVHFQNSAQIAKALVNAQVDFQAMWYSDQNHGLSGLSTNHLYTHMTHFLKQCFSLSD
Method: FAP and PREP were assayed in buffer containing 0.1 M Tris–HCl (pH 8), 300 mM NaF, 1 mM EDTA, 50 mM salicylic acid, and 5 mM DTT.

[13] = system: B6^Nlrp1b+C1^−/−C11^−/− macrophages; experiment: Caspase-8 cleavage by immunoblot; assay type: cell-based, mouse; details: 10 μM; 4 h
J774.A1 cells = experiment: Cell death kinetics, Sytox Green on Incucyte; details: 10 μM and 25 μM
[14] = calibration curve in cell lysate
[15] = cell lysate of BMDMs that received 10 µM for 15 min
[16] = medium of BMDMs that received 10 µM for 15 min
[17] = Ic50, calibration curve in cell lysate
[18] = Ic50, calibration curve in medium

T1 sequence (Q86TI2 whole entry): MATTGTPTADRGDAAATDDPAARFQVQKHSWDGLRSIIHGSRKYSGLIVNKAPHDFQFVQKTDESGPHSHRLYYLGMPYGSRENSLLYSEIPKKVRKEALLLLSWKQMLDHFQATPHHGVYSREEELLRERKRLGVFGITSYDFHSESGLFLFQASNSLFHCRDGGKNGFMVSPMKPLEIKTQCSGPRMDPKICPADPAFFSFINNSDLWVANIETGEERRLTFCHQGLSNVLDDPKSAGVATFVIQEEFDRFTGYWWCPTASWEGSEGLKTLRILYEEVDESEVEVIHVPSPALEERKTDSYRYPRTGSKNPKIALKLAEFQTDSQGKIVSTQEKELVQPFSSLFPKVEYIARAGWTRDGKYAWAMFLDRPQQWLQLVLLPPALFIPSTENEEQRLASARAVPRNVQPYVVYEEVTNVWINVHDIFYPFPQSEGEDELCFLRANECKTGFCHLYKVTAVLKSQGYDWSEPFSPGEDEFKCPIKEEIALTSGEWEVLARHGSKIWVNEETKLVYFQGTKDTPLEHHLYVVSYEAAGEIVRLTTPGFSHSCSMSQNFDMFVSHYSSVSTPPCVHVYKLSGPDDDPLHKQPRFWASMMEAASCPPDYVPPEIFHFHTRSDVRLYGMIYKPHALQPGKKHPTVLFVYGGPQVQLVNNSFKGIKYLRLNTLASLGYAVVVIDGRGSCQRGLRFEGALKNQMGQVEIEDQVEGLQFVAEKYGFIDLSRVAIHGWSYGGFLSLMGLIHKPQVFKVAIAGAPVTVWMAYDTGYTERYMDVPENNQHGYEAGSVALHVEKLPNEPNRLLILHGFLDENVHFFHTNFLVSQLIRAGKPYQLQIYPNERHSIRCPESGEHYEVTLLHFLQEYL

## N[C@@H](CC(=O)N1CCN(C(c2ccc(F)cc2)c2ccc(F)cc2)CC1)C(=O)N1Cc2ccccc2C1 [1G244]
B6 BMDMs; 10 μM or 25 μM
  time at which pyroptosis commences: around 10 h
B6 BMDMs; by 24 h, 10 μM or 25 μM
  pyroptosis, share of the cell population: ~20%
B6 BMDMs; by 24 h, 40 μM
  pyroptosis level: 40%
B6^Nlrp1b+ BMDMs [1]; 0.1 μM
  cell death induction (in words): failed to trigger a cytotoxic response
B6^Nlrp1b+ BMDMs [1]; 1 μM
  cell death induction (in words): induced a reduced level of pyroptosis
B6^Nlrp1b+ BMDMs [1]; 10 μM, by 6 h posttreatment
  plateau of pyroptosis: about 60%
B6^Nlrp1b+ BMDMs [1]
  time to reach 30% half-maximal level of pyroptosis: ≤ 2 h
B6^Nlrp1b+ BMDMs [2]
  caspase-1 maturation to p20 (in words): efficiently promoted caspase-1 auto-maturation
B6^Nlrp1b+ BMDMs [2]; 1 μM
  caspase-1 maturation (in words): triggered weak caspase-1 processing
[3]; 10 or 40 μM, 4, 8 or 24 h
  secretion of IL-1β and IL-18 (in words): potently triggered secretion of IL-1β and IL-18
B6^Nlrp1b+ BMDMs [4]
  ASC speck formation (in words): marked ASC speck formation
B6^Nlrp1b+ASC^−/− BMDMs [5]
  reduction of maximal level of pyroptosis compared with ASC-sufficient B6^Nlrp1b+ macrophages: about 50%
B6^Nlrp1b+ASC^−/− BMDMs [6]
  caspase-1 maturation (in words): blunted
[7]
  cell death (in words): remained alive and were fully rescued from apoptosis and pyroptosis induction
[8]
  apoptosis induction (in words): potently induce apoptosis
Human DPP9 [9]; [14]
  Slope factor: 1.30 ± 0.09
Human DPP9 [9]; calibration curve in medium
  Slope factor: 1.39 ± 0.09
Human DPP9 [9]; [15]
  Inhibition: 98%
Human DPP9 [9]; [16]
  Inhibition: 100%
Human DPP9 [9]
  Inhibitor in lysate: 0.06 µM
  Inhibitor in medium: 1.5 µM
Human DPP9 [10]; [17]
  IC50: 0.01 ± 0.0006 µM
Human DPP9 [10]; [18]
  IC50: 0.0153 ± 0.0008 µM

## N#C[C@@H]1CCCN1C(=O)[C@@H]1CCCN1C(=O)CCCc1ccccc1 [KYP-2047]
B6 BMDMs; 10, 25 and 40 μM
  cell death induction (in words): none of the listed inhibitors triggered a cell death response
B6^Nlrp1b+ BMDMs [1]; 10, 25 and 40 μM
  cell death induction (in words): none of the listed inhibitors triggered a cell death response

## N[C@@H](CCNCc1ccc(Cl)cc1)C(=O)N1CCCCC1 [UAMC39]
B6 BMDMs; 10, 25 and 40 μM
  cell death induction (in words): none of the listed inhibitors triggered a cell death response
B6^Nlrp1b+ BMDMs [1]; 10, 25 and 40 μM
  cell death induction (in words): none of the listed inhibitors triggered a cell death response
Human DPP2 [11]; [14]
  Slope factor: 1.3 ± 0.3
Human DPP2 [11]; calibration curve in medium
  Slope factor: 1.4 ± 0.1
Human DPP2 [11]; [15]
  Inhibition: 100%
Human DPP2 [11]; [16]
  Inhibition: 100%
Human DPP2 [11]; mouse, 15 min, 10 µM
  Inhibitor in lysate: 120/66
  Inhibitor in medium: 52/45
Human DPP2 [12]; [17]
  IC50: 0.006 ± 0.001 µM
Human DPP2 [12]; [18]
  IC50: 0.0098 ± 0.0006 µM

## N#C[C@@H]1CC(F)(F)CN1C(=O)CNC(=O)c1ccnc2ccccc12 [UAMC1110]
B6 BMDMs; 10, 25 and 40 μM
  cell death induction (in words): none of the listed inhibitors triggered a cell death response
B6^Nlrp1b+ BMDMs [1]; 10, 25 and 40 μM
  cell death induction (in words): none of the listed inhibitors triggered a cell death response
Human recombinant FAP; [14]
  Slope factor: 1.21 ± 0.07
Human recombinant FAP; calibration curve in medium
  Slope factor: 1.2 ± 0.1
Human recombinant FAP; [15]
  Inhibition: 100%
Human recombinant FAP; [16]
  Inhibition: 100%
Human recombinant FAP; mouse, 15 min, 10 µM
  Inhibitor in lysate: 0.4 µM
  Inhibitor in medium: 8.8 µM

## CC(C)[C@H](N)C(=O)N1CCC[C@H]1B(O)O [VBP, Val-boroPro]
B6 BMDMs; 10, 25 and 40 μM
  time required to reach 30% cytotoxicity: about 8 h
B6 BMDMs; by 6 h, 10, 25 and 40 μM
  level of pyroptosis (SG-positive cells relative to Triton X100): ~20%
B6 BMDMs; by 24 h, 10, 25 and 40 μM
  plateau cytotoxicity: approximately 50%
B6 BMDMs; rebuttal letter, on Figure 1a
  time to reach the same level of cell death induction (35%): approximately 9 h
B6^Nlrp1b+ BMDMs [1]; 0.1 μM
  cell death induction (in words): failed to trigger a cytotoxic response
B6^Nlrp1b+ BMDMs [1]; 1 μM
  cell death induction (in words): sufficient to induce robust pyroptosis
B6^Nlrp1b+ BMDMs [1]
  time to reach 30% half-maximal level of pyroptosis: ≤ 3 h
B6^Nlrp1b+ BMDMs [1]; rebuttal letter, on Figure 1a
  time to reach half-maximal induction of pyroptosis (35% cell death in the total cell population): about 3 hours
B6^Nlrp1b+ BMDMs [2]
  caspase-1 maturation to p20 (in words): triggered marked caspase-1 cleavage
B6^Nlrp1b+ BMDMs [2]; 0.1 μM
  caspase-1 maturation (in words): failed to induce caspase-1 auto-cleavage
B6^Nlrp1b+ BMDMs [2]; 1 μM
  caspase-1 maturation (in words): sufficient to trigger caspase-1 maturation
[3]; 10 or 40 μM, 4, 8 or 24 h
  secretion of IL-1β and IL-18 (in words): potently released IL-1β
B6^Nlrp1b+ BMDMs [4]
  ASC speck formation (in words): marked ASC speck formation
B6^Nlrp1b+ASC^−/− BMDMs [5]
  reduction of maximal level of pyroptosis compared with ASC-sufficient B6^Nlrp1b+ macrophages: about 50%
B6^Nlrp1b+ASC^−/− BMDMs [6]
  caspase-1 maturation (in words): blunted
[7]
  cell death (in words): remained alive and were fully rescued from apoptosis and pyroptosis induction
[13]
  caspase-8 cleavage (in words): marked ASC-dependent caspase-8 cleavage
[8]
  apoptosis induction (in words): potently induce apoptosis
J774.A1 cells
  cytotoxic response (in words): elicited a swift and robust cytotoxic response

## CC(=O)N[C@H](C(=O)N1CCC[C@H]1B(O)O)C(C)C [aVBP]
B6 BMDMs; 10, 25 and 40 μM
  cell death induction (in words): failed to induce cytotoxicity
B6^Nlrp1b+ BMDMs [1]; 10, 25 and 40 μM
  cell death induction (in words): failed to induce cytotoxicity
B6^Nlrp1b+ BMDMs [2]
  caspase-1 maturation to p20 (in words): failed to elicit caspase-1 maturation
[3]; 10 or 40 μM, 4, 8 or 24 h
  secretion of IL-1β and IL-18 (in words): failed to induce cytokine secretion

## CC(C)[C@@H]1[NH2+][B-](O)(O)[C@@H]2CCCN2C1=O [cVBP]
B6 BMDMs; 10, 25 and 40 μM
  cell death induction (in words): failed to induce cell death
B6^Nlrp1b+ BMDMs [1]; 10, 25 and 40 μM
  cell death induction (in words): induced significant pyroptosis
B6^Nlrp1b+ BMDMs [2]
  caspase-1 maturation to p20 (in words): caspase-1 p20 cleavage was detected only in lysates of macrophages that had been treated with the highest concentration (40 μM)
[3]; 10 μM
  secretion of IL-1β and IL-18 (in words): less efficient in eliciting extracellular secretion of IL-1β and IL-18
[3]; 40 μM
  secretion of IL-1β and IL-18 (in words): triggered substantial extracellular release of IL-1β and IL-18
Human DPP9 [9]; [14]
  Slope factor: 1.4 ± 0.2
Human DPP9 [9]; calibration curve in medium
  Slope factor: 1.33 ± 0.08
Human DPP9 [9]; [15]
  Inhibition: 2.7%
Human DPP9 [9]; [16]
  Inhibition: 71%
Human DPP9 [9]
  Inhibitor in lysate: 0.3 µM
  Inhibitor in medium: 3.2 µM
Human DPP9 [9]; relative to VBP
  attenuation in ability to inhibit DPP9 activity in vitro: more than 100 fold
Human DPP9 [10]; [17]
  IC50: 1.6 ± 0.1 µM
Human DPP9 [10]; [18]
  IC50: 1.7 ± 0.08 µM

## N[C@@H](CC(=O)N1CCn2c(nnc2C(F)(F)F)C1)Cc1cc(F)c(F)cc1F [sitagliptin]
B6 BMDMs; 10, 25 and 40 μM
  cell death induction (in words): none of the listed inhibitors triggered a cell death response
B6^Nlrp1b+ BMDMs [1]; 10, 25 and 40 μM
  cell death induction (in words): none of the listed inhibitors triggered a cell death response
